Measured values published in patent US11198681B2, “Heteroaryl inhibitors of PAD4” (Padlock Therapeutics, Inc., priority 2016, dated 2021).
pIC50: −log10 of the molar value. Like-named read-outs stand apart in the source and are kept apart here.

Target: hPAD4 (Homo sapiens (Human), UniProt Q9UM07)
Test: hPAD4 AR assay (Table 2)
Type: biochemical
Conditions: for pIC50: read-out: hPAD4 AR IC50; for IC50: read-out: hPAD4 AR pIC50 (converted)

Chain of hPAD4 (Q9UM07 whole entry): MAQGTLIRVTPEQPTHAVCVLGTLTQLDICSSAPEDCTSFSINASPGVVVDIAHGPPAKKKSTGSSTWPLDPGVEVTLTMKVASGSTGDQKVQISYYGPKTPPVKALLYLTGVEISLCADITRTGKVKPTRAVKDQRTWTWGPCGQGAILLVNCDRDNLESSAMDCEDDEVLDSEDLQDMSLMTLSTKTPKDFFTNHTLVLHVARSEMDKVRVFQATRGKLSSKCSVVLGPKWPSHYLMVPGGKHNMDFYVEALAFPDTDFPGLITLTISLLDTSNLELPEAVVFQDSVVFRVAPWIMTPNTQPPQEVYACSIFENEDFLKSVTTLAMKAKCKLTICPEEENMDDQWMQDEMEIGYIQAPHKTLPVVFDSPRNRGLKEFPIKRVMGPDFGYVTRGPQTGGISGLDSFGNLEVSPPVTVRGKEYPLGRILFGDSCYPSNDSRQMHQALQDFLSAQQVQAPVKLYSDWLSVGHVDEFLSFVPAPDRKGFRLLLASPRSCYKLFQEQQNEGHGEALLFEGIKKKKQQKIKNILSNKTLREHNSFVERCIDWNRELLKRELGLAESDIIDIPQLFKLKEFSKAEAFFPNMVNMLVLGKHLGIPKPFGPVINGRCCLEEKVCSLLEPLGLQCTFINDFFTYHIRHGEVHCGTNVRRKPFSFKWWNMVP

Structure (SMILES) | pIC50 | IC50
COc1cc(C(=O)N2C[C@H]3CC[C@@H]2[C@@H]3N)cc2nc(-c3ccc(C#N)n3C3CC3)n(C)c12 [I-81, 5-{5-[(1R,4R,7R)-7-Amino-2-azabicyclo[2.2.1]heptane-2-carbonyl]-7-methoxy-1-methyl-1H-1,3-benzodiazol-2-yl}-1-cyclopropyl-1H-pyrrole-2-carbonitrile] | > 6.00 | < 1000 nM
COc1cc(C(=O)N2C[C@H]3CC[C@@H]2[C@@H]3N)cc2nc(-c3ccc(C#N)n3CC(F)(F)F)n(C)c12 [I-82, 5-{5-[(1R,4R,7R)-7-Amino-2-azabicyclo[2.2.1]heptane-2-carbonyl]-7-methoxy-1-methyl-1H-1,3-benzodiazol-2-yl}-1-(2,2,2-trifluoroethyl)-1H-pyrrole-2-carbonitrile] | > 6.00 | < 1000 nM
COc1cc(C(=O)N2C[C@H]3CC[C@@H]2[C@@H]3N)cc2nc(-c3ccc(C#N)n3C[C@@H](C)c3ccccc3)n(C)c12 [I-84] | > 6.00 | < 1000 nM
COc1cc(C(=O)N2C[C@H]3CC[C@@H]2[C@@H]3N)cc2nc(-c3ccc(C#N)n3C[C@H](C)c3ccccc3)n(C)c12 [I-85] | > 6.00 | < 1000 nM
CCn1c(-c2cnc(-c3ccccc3)n2CC2CC2)nc2cc(C(=O)N3C[C@H]4CC[C@@H]3[C@@H]4N)cc(OC)c21 [I-86, (1R,4R,7R)-2-{2-[1-(Cyclopropylmethyl)-2-phenyl-1H-imidazol-5-yl]-1-ethyl-7-methoxy-1H-1,3-benzodiazole-5-carbonyl}-2-azabicyclo[2.2.1]heptan-7-amine] | > 6.00 | < 1000 nM
Cn1c(-c2cnc(-c3ccccc3)n2CC2CC2)nc2cc(C(=O)N3C[C@H]4CC[C@@H]3[C@@H]4N)cc(F)c21 [I-87] | > 6.00 | < 1000 nM
COc1cccc(-c2nc3cc(C(=O)N4C[C@H]5CC[C@@H]4[C@@H]5N)cc(OC)c3n2C)n1 [I-88] | < 5.00 | 10000 to 100000 nM
COc1cc(C(=O)N2C[C@H]3CC[C@@H]2[C@@H]3N)cc2nc(-c3ccc(C#N)n3C[C@H]3C[C@@](C)(OC)C3)n(C)c12 [I-89, 5-{5-[(1R,4R,7R)-7-Amino-2-azabicyclo[2.2.1]heptane-2-carbonyl]-7-methoxy-1-methyl-1H-1,3-benzodiazol-2-yl}-1-{[(1R,3S)-3-methoxy-3-methylcyclobutyl]methyl}-1H-pyrrole-2-carbonitrile] | > 6.00 | < 1000 nM
CCc1c(-c2nc3cc(C(=O)N4C[C@H]5CC[C@@H]4[C@@H]5N)cc(OC)c3n2C)ccn1S(=O)(=O)c1ccc(C)cc1 [I-92] | > 6.00 | < 1000 nM
COc1cc(C(=O)N2C[C@H]3CC[C@@H]2[C@@H]3N)cc2nc(-c3cccc(=O)n3CC3CC3)n(C)c12 [I-102, 6-{5-[(1R,4R,7R)-7-Amino-2-azabicyclo[2.2.1]heptane-2-carbonyl]-7-methoxy-1-methyl-1H-1,3-benzodiazol-2-yl}-1-(cyclopropylmethyl)-1,2-dihydropyridin-2-one] | > 6.00 | < 1000 nM
COc1cc(C(=O)N2C[C@H]3CC[C@@H]2[C@@H]3N)cc2nc(-c3cccnc3CC3CC3)n(C)c12 [I-105, (1R,4R,7R)-2-{2-[2-(Cyclopropylmethyl)pyridin-3-yl]-7-methoxy-1-methyl-1H-1,3-benzodiazole-5-carbonyl}-2-azabicyclo[2.2.1]heptan-7-amine] | > 6.00 | < 1000 nM
COc1cc(C(=O)N2C[C@H]3CC[C@@H]2[C@@H]3N)cc2nc(-c3cccnc3CC3CC3C)n(C)c12 (some centres unmarked) [I-108] | > 6.00 | < 1000 nM
COc1cc(C(=O)N2C[C@H]3CC[C@@H]2[C@@H]3N)cc2nc(-c3ccc(Br)c(=O)n3CC3CC3)n(C)c12 [I-111] | > 6.00 | < 1000 nM
COc1cc(C(=O)N2C[C@H]3CC[C@@H]2[C@@H]3N)cc2nc(-c3ccc(C)c(=O)n3CC3CC3)n(C)c12 [I-112, 6-{5-[(1R,4R,7R)-7-Amino-2-azabicyclo[2.2.1]heptane-2-carbonyl]-7-methoxy-1-methyl-1H-1,3-benzodiazol-2-yl}-1-(cyclopropylmethyl)-3-methyl-1,2-dihydropyridin-2-one] | > 6.00 | < 1000 nM
COc1cc(C(=O)N2C[C@H]3CC[C@@H]2[C@@H]3N)cc2nc(-c3ccc(C)nc3CC3CC3)n(C)c12 [I-115] | > 6.00 | < 1000 nM
COc1cc(C(=O)N2C[C@H]3CC[C@@H]2[C@@H]3N)cc2nc(-c3ccc(F)nc3CC3CC3)n(C)c12 [I-117, (1R,4R,7R)-2-{2-[2-(Cyclopropylmethyl)-6-fluoropyridin-3-yl]-7-methoxy-1-methyl-1H-1,3-benzodiazole-5-carbonyl}-2-azabicyclo[2.2.1]heptan-7-amine] | > 6.00 | < 1000 nM
